The values below are quoted from earlier work in article PMC4393105, “tRNA^Glu Increases the Affinity of Glutamyl-tRNA Synthetase for Its Inhibitor Glutamyl-Sulfamoyl-Adenosine, an Analogue of the Aminoacylation Reaction Intermediate Glutamyl-AMP: Mechanistic and Evolutionary Implications” (PLoS ONE, 2015).

Series [1] deals with ThrRS from yeast mitochodria. Also on record: method as in PMID 22773845. The settings on record: read-out: K d aa-AMP aaRS; cited from earlier work.
Another series relates to IleRS from E. coli. Set-up: method as in earlier work. The following applies: reviewed by Fersht, 1998, 48; cited from earlier work.
The next series concerns the target PheRS from baker’s yeast. The following applies: read-out: K d aa-AMP aaRS, cited from earlier work.

Where two headings read alike, the source gives them in different places.

For the compound `C[C@@H](O)[C@H](N)C(=O)NS(=O)(=O)OC[C@@H]1O[C@H](n2cnc3c(N)ncnc32)[C@@H](O)[C@H]1O` [Thr-AMS, Threonyl-sulfamoyl-adenosine], in series [1], the Kd is 4.5 nM.

For `CC(C)[C@H](N)C(=O)OP(=O)(O)OC[C@H]1O[C@@H](n2cnc3c(N)ncnc32)[C@H](O)[C@@H]1O` [Val-AMP, valyl-adenylate], in the series on IleRS from E. coli, the “fold weaker affinity than Ile-AMP” value was “This IleRS binds Val-AMP with a 150-fold weaker affinity than Ile-AMP”.

In the case of `Nc1ncnc2c1ncn2[C@@H]1O[C@H](COP(=O)(O)OC(=O)[C@@H](N)Cc2ccc(O)cc2)[C@@H](O)[C@H]1O` [Tyr-AMP, tyrosyl-AMP], on PheRS from baker’s yeast (non-cognate aa-AMP), the Kd is 1000 nM.

Turning to `Nc1ncnc2c1ncn2[C@@H]1O[C@H](COP(=O)(O)OC(=O)[C@@H](N)Cc2ccccc2)[C@@H](O)[C@H]1O` [Phe-AMP], on PheRS from baker’s yeast (cognate aa-AMP), the Kd was 5 nM.

Consider `Nc1ncnc2c1ncn2C1OC(COS(=O)(=O)NC(=O)[C@@H](N)CO)[C@@H](O)[C@H]1O` (some centres unmarked) [Ser-AMS, Seryl-sulfamoyl-adenosine], for which, in series [1], the Kd was 450 nM.
